Laboratory results as given in US20250339517A1, “LIPID N[…]” (priority 2022, published 2025).

Test system: F9A6-CD4 T cell hybridoma overlaid on M. tuberculosis-infected macrophages
Test: Ex vivo MTB Ag85B antigen presentation to CD4 T cells (IL-2 ELISA)
Assay type: cell-based, human
Settings: concurrent activation; decrease for MO-TDM compared to TDM and MO
Protocol: Briefly, M. tuberculosis-infected MΦs were washed after a 4-hour infection and overlaid with the F9A6-CD4 T cell hybridoma which recognizes an Ag85B epitope in the context of human HLA-DR1. IL-2 secreted from hybridoma T cells or other cytokines secreted from M. tuberculosis-infected MΦs were determined using a sandwich ELISA kit (Biolegend).
By inhibiting the phagosome lysosome fusion in macrophages, TDM not only protects the M. tuberculosis bacilli from intracellular killing but also reduces the priming of T cells due to reduced processing of Mycobacterial antigens in lysosomal compartments. Since increased killing of intracellular MTB in macrophages was observed when they were stimulated with a cubosomal MO-TDM (1 mol %) preparation, it indicated a possible increase in lysosmal processing of its antigens. […] An in vitro antigen presentation assay using a CD4 hybridoma T cell that recognizes a specific epitope of Ag85B was adopted to determine the priming of T cells by macrophages that were stimulated with MO, TDM and MO-TDM (1 mol %). Secreted levels of IL-2 by hybridoma T cells upon overlay to M. tuberculosis infected macrophages with and without stimulation with MO, TDM and MO-TDM (1 mol %) were monitored in a time dependent manner (FIG. 9).

trehalose 6,6′ dimycolate [TDM]
antigen presentation to T cells (secreted IL-2 levels), change from day 3 to day 5 post infection: decreased sharply
